# From publication PMC5458547, “Discovery of first-in-class reversible dual small molecule inhibitors against G9a and DNMTs in hematological malignancies” (Nature Communications, 2017)
# Like-named read-outs stand apart in the source and are kept apart here.
# How the values were obtained:
# [1] = molecular target: T1, ABL1(T315I)-phosphorylated (Homo sapiens, UniProt P00519, T315I); assay: KINOMEscan kinase profiling; format: binding; settings: read-out: Percent Control
# T1 construct: purchased DiscoverX KINOMEscan (kinases); BPS Bioscience (epigenetic targets)
# Protocol: (§1) Kinase Selectivity Profiling
# (§2) (out of which 90 are non-mutant kinases) was performed at DiscoverRx (http://www.discoverx.com/home) using the KINOMEscan™ screening platform at a test concentration of 10 µM. Results for primary screen […]
# (§3) positive control signal) / (negative control signal – positive control signal) *100, where negative control corresponds to DMSO treatment (100%) and positive control to the signal obtained with a control competitive compound (0%). […]
# (§4) using the Hill equation. Each target was assayed in duplicate. […]
# [2] = molecular target: T2, ABL1-nonphosphorylated (Homo sapiens, UniProt P00519); assay: KINOMEscan kinase profiling; format: binding; settings: read-out: Percent Control
# T2 construct: purchased DiscoverX KINOMEscan (kinases); BPS Bioscience (epigenetic targets)
# Protocol: as §1, §2, §3, §4
# [3] = molecular target: T3, ABL1-phosphorylated (Homo sapiens, UniProt P00519); assay: KINOMEscan kinase profiling; format: binding; settings: read-out: Percent Control
# T3 construct: purchased DiscoverX KINOMEscan (kinases); BPS Bioscience (epigenetic targets)
# Protocol: as §1, §2, §3, §4
# [4] = molecular target: T4, AKT2 (Homo sapiens, UniProt P31751); assay: KINOMEscan kinase profiling; format: binding; settings: read-out: Percent Control
# T4 construct: purchased DiscoverX KINOMEscan (kinases); BPS Bioscience (epigenetic targets)
# Protocol: as §1, §2, §3, §4
# [5] = molecular target: T5, AURKA (Homo sapiens, UniProt O14965); assay: KINOMEscan kinase profiling; format: binding; settings: read-out: Percent Control
# T5 construct: purchased DiscoverX KINOMEscan (kinases); BPS Bioscience (epigenetic targets)
# Protocol: as §1, §2, §3, §4
# [6] = molecular target: T6, AURKB (Homo sapiens, UniProt Q96GD4); assay: KINOMEscan kinase profiling; format: binding; settings: read-out: Percent Control
# T6 construct: purchased DiscoverX KINOMEscan (kinases); BPS Bioscience (epigenetic targets)
# Protocol: as §1, §2, §3, §4
# [7] = molecular target: T7, BRAF(V600E) (Homo sapiens, UniProt P15056, V600E); assay: KINOMEscan kinase profiling; format: binding; settings: read-out: Percent Control
# T7 construct: purchased DiscoverX KINOMEscan (kinases); BPS Bioscience (epigenetic targets)
# Protocol: as §1, §2, §3, §4
# [8] = molecular target: T8, ERBB2 (Homo sapiens, UniProt P04626); assay: KINOMEscan kinase profiling; format: binding
# T8 construct: purchased DiscoverRx (DiscoverX), KINOMEscan screening platform
# T8 sequence (P04626 23-1255): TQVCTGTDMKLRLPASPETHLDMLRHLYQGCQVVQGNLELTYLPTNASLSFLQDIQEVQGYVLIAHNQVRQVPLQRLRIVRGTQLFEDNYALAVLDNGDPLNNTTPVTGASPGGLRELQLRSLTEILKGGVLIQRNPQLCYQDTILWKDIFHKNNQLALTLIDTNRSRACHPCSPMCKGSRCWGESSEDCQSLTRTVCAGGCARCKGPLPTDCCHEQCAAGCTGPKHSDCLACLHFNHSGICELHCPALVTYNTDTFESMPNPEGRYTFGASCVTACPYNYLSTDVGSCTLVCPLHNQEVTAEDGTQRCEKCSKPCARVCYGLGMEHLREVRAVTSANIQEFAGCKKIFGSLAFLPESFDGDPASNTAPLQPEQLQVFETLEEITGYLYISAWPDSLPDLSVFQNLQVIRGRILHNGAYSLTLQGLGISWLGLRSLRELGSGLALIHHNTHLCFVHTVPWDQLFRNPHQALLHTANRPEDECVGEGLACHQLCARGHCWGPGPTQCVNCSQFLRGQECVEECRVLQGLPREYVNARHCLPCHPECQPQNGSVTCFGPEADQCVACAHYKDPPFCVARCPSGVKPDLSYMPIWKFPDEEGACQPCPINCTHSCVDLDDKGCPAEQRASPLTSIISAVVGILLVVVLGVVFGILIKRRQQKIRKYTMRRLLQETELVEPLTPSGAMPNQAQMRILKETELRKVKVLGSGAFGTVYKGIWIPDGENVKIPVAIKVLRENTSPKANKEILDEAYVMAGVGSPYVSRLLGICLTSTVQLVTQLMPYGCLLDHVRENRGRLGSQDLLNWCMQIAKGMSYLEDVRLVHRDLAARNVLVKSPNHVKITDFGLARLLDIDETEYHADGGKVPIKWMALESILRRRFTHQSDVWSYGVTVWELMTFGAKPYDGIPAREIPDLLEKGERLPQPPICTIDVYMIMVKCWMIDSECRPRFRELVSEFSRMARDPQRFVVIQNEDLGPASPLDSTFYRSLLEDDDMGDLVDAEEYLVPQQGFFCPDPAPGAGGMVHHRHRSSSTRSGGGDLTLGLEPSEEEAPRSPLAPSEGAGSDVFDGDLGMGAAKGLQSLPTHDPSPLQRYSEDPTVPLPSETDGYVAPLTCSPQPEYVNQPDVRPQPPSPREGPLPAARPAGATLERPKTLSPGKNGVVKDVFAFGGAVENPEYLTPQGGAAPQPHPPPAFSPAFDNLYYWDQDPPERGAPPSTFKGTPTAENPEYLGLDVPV
# Protocol: as §1, §2, §3, §4
# [9] = molecular target: T9, FGFR3 (Homo sapiens, UniProt P22607); assay: KINOMEscan kinase profiling; format: binding; settings: read-out: Percent Control
# T9 construct: purchased DiscoverX KINOMEscan (kinases); BPS Bioscience (epigenetic targets)
# Protocol: as §1, §2, §3, §4
# [10] = molecular target: T10, FLT3 (Homo sapiens, UniProt P36888); assay: KINOMEscan kinase profiling; format: binding; settings: read-out: Percent Control
# T10 construct: purchased DiscoverX KINOMEscan (kinases); BPS Bioscience (epigenetic targets)
# Protocol: as §1, §2, §3, §4
# [11] = molecular target: T11, IGF1R (Homo sapiens, UniProt P08069); assay: KINOMEscan kinase profiling; format: binding; settings: read-out: Percent Control
# T11 construct: purchased DiscoverX KINOMEscan (kinases); BPS Bioscience (epigenetic targets)
# T11 sequence (P08069 31-1367): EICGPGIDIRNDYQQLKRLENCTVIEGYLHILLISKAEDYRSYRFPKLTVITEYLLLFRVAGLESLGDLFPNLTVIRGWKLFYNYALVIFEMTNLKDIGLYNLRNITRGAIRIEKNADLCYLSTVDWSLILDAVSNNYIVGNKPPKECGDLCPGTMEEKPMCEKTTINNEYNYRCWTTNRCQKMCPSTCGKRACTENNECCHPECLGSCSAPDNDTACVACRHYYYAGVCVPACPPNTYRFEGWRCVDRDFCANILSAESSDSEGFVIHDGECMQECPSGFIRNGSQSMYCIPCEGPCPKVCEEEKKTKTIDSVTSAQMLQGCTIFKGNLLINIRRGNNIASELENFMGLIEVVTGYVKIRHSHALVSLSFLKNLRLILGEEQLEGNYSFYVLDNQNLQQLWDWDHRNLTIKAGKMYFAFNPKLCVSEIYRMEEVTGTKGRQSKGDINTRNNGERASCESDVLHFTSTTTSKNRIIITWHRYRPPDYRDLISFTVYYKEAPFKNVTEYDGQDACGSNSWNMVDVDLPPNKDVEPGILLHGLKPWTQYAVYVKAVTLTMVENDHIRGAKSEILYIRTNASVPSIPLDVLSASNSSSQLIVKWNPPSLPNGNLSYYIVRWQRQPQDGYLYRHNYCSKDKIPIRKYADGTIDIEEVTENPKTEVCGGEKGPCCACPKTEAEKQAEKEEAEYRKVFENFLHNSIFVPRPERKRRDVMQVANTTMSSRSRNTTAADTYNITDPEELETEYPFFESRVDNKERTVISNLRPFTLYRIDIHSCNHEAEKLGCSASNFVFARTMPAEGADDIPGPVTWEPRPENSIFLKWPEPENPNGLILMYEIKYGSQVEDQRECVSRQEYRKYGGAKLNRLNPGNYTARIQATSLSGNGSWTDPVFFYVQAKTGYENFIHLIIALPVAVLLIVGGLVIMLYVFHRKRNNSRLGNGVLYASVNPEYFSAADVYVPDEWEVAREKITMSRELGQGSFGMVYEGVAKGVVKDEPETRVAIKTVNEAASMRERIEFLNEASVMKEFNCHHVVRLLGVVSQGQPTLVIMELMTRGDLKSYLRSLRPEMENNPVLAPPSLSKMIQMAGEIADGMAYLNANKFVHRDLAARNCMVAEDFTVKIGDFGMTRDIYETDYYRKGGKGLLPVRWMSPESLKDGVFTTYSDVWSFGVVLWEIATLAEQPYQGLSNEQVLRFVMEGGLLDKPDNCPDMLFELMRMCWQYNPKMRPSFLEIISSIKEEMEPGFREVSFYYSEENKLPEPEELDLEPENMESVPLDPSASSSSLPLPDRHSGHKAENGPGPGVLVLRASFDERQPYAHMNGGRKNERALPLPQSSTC
# Protocol: as §1, §2, §3, §4
# [12] = molecular target: T12, JAK2(JH1domain-catalytic) (Homo sapiens, UniProt O60674); assay: KINOMEscan kinase profiling; format: binding; settings: read-out: Percent Control
# T12 construct: JAK2(JH1domain-catalytic); purchased DiscoverX KINOMEscan (kinases); BPS Bioscience (epigenetic targets)
# Protocol: as §1, §2, §3, §4
# [13] = molecular target: T13, JNK3 (Homo sapiens, UniProt P53779); assay: KINOMEscan kinase profiling; format: binding; settings: read-out: Percent Control
# T13 construct: purchased DiscoverX KINOMEscan (kinases); BPS Bioscience (epigenetic targets)
# T13 sequence (P53779 whole entry): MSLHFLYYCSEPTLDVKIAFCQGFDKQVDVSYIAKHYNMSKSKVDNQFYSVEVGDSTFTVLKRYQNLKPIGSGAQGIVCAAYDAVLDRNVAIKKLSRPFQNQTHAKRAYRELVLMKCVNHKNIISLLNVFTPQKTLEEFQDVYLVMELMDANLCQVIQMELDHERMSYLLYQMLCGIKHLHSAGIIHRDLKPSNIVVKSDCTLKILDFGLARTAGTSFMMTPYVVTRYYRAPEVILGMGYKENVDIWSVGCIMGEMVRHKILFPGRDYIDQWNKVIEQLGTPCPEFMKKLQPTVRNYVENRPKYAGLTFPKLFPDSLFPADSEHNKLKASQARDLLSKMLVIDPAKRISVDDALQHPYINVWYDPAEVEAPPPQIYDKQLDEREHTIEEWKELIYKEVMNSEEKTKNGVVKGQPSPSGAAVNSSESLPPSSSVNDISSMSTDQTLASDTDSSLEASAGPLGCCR
# Protocol: as §1, §2, §3, §4
# [14] = molecular target: T14, LKB1 (Homo sapiens, UniProt Q15831); assay: KINOMEscan kinase profiling; format: binding; settings: read-out: Percent Control
# T14 construct: purchased DiscoverX KINOMEscan (kinases); BPS Bioscience (epigenetic targets)
# T14 sequence (Q15831 whole entry): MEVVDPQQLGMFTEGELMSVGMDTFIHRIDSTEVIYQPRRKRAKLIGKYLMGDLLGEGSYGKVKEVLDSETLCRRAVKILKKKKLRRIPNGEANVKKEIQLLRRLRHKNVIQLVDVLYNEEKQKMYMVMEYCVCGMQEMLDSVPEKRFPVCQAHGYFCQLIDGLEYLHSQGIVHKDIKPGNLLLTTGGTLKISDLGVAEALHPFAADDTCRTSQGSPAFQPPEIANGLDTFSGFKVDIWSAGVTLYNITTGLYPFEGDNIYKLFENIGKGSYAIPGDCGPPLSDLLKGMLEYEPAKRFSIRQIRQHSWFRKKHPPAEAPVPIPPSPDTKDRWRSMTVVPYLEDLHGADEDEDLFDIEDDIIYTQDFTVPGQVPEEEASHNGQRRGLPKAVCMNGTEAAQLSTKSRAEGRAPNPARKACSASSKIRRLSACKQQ
# Protocol: as §1, §2, §3, §4
# [15] = molecular target: T15, MAPKAPK2 (Homo sapiens, UniProt P49137); assay: KINOMEscan kinase profiling; format: binding; settings: read-out: Percent Control
# T15 construct: purchased DiscoverX KINOMEscan (kinases); BPS Bioscience (epigenetic targets)
# Protocol: as §1, §2, §3, §4
# [16] = molecular target: T16, MARK3 (Homo sapiens, UniProt P27448); assay: KINOMEscan kinase profiling; format: binding; settings: read-out: Percent Control
# T16 construct: purchased DiscoverX KINOMEscan (kinases); BPS Bioscience (epigenetic targets)
# T16 sequence (P27448 whole entry): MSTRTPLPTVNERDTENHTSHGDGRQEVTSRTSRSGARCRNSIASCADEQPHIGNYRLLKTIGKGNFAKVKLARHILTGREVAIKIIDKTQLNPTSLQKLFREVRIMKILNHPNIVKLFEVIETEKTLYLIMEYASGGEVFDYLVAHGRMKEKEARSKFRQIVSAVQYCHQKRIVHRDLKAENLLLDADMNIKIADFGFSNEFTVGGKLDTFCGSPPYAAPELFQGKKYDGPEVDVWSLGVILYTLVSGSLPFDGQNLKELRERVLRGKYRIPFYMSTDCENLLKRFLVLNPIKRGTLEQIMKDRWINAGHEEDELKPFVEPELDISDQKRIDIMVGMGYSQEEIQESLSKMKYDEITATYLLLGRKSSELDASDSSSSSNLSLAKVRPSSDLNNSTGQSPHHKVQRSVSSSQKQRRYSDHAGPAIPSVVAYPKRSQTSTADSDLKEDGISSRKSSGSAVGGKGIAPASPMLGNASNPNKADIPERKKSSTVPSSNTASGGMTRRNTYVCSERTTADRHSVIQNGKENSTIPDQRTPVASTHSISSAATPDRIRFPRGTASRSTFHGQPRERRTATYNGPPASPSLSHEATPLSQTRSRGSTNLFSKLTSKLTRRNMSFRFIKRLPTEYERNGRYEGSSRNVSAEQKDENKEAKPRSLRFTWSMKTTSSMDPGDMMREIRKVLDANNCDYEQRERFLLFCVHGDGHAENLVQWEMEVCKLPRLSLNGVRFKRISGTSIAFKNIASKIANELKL
# Protocol: as §1, §2, §3, §4
# [17] = molecular target: T17, MEK1 (Homo sapiens, UniProt Q02750); assay: KINOMEscan kinase profiling; format: binding; settings: read-out: Percent Control
# T17 construct: purchased DiscoverX KINOMEscan (kinases); BPS Bioscience (epigenetic targets)
# Protocol: as §1, §2, §3, §4
# [18] = molecular target: T18, MEK2 (Homo sapiens, UniProt P36507); assay: KINOMEscan kinase profiling; format: binding; settings: read-out: Percent Control
# T18 construct: purchased DiscoverX KINOMEscan (kinases); BPS Bioscience (epigenetic targets)
# T18 sequence (P36507 whole entry): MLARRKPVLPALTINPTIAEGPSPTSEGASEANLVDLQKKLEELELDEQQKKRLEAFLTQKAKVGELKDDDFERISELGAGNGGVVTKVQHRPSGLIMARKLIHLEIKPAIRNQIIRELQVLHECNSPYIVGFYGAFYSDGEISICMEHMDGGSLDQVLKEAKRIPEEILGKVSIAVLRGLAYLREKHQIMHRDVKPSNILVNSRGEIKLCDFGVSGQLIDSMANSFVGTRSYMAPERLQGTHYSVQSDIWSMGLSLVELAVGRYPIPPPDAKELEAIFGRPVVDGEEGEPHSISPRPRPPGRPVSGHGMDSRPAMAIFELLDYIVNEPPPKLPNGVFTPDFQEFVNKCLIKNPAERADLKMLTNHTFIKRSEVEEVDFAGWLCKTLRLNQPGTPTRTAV
# Protocol: as §1, §2, §3, §4
# [19] = molecular target: T19, MKNK2 (Homo sapiens, UniProt Q9HBH9); assay: KINOMEscan kinase profiling; format: binding; settings: read-out: Percent Control
# T19 construct: purchased DiscoverX KINOMEscan (kinases); BPS Bioscience (epigenetic targets)
# Protocol: as §1, §2, §3, §4
# [20] = molecular target: T20, PCTK1 (Homo sapiens, UniProt Q00536); assay: KINOMEscan kinase profiling; format: binding; settings: read-out: Percent Control
# T20 construct: purchased DiscoverX KINOMEscan (kinases); BPS Bioscience (epigenetic targets)
# Protocol: as §1, §2, §3, §4
# [21] = molecular target: T21, PDPK1 (Homo sapiens, UniProt O15530); assay: KINOMEscan kinase profiling; format: binding; settings: read-out: Percent Control
# T21 construct: purchased DiscoverX KINOMEscan (kinases); BPS Bioscience (epigenetic targets)
# Protocol: as §1, §2, §3, §4
# [22] = molecular target: T22, PIK3CA (Homo sapiens, UniProt P42336); assay: KINOMEscan kinase profiling; format: binding; settings: read-out: Percent Control
# T22 construct: purchased DiscoverX KINOMEscan (kinases); BPS Bioscience (epigenetic targets)
# Protocol: as §1, §2, §3, §4
# [23] = molecular target: T23, PIM2 (Homo sapiens, UniProt Q9P1W9); assay: KINOMEscan kinase profiling; format: binding; settings: read-out: Percent Control
# T23 construct: purchased DiscoverX KINOMEscan (kinases); BPS Bioscience (epigenetic targets)
# T23 sequence (Q9P1W9 whole entry): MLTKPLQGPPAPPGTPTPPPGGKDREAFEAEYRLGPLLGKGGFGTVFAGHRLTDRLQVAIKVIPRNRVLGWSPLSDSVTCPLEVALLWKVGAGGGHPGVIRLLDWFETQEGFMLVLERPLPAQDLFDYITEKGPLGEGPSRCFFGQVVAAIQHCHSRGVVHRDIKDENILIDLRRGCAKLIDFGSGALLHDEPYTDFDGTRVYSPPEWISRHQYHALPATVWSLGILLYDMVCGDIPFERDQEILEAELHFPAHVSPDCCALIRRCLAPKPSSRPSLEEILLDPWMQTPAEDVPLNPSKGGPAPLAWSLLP
# Protocol: as §1, §2, §3, §4
# [24] = molecular target: T24, PKAC-alpha (Homo sapiens, UniProt P17612); assay: KINOMEscan kinase profiling; format: binding; settings: read-out: Percent Control
# T24 construct: purchased DiscoverX KINOMEscan (kinases); BPS Bioscience (epigenetic targets)
# Protocol: as §1, §2, §3, §4
# [25] = molecular target: T25, PLK3 (Homo sapiens, UniProt Q9H4B4); assay: KINOMEscan kinase profiling; format: binding; settings: read-out: Percent Control
# T25 construct: purchased DiscoverX KINOMEscan (kinases); BPS Bioscience (epigenetic targets)
# Protocol: as §1, §2, §3, §4
# [26] = molecular target: T26, RAF1 (Homo sapiens, UniProt P04049); assay: KINOMEscan kinase profiling; format: binding; settings: read-out: Percent Control
# T26 construct: purchased DiscoverX KINOMEscan (kinases); BPS Bioscience (epigenetic targets)
# Protocol: as §1, §2, §3, §4
# [27] = molecular target: T27, RET (Homo sapiens, UniProt P07949); assay: KINOMEscan kinase profiling; format: binding; settings: read-out: Percent Control
# T27 construct: purchased DiscoverX KINOMEscan (kinases); BPS Bioscience (epigenetic targets)
# Protocol: as §1, §2, §3, §4
# [28] = molecular target: T28, SNARK (Homo sapiens, UniProt Q9H093); assay: KINOMEscan kinase profiling; format: binding; settings: read-out: Percent Control
# T28 construct: purchased DiscoverX KINOMEscan (kinases); BPS Bioscience (epigenetic targets)
# Protocol: as §1, §2, §3, §4
# [29] = molecular target: T29, TYK2(JH1domain-catalytic) (Homo sapiens, UniProt P29597); assay: KINOMEscan kinase profiling; format: binding; settings: read-out: Percent Control
# T29 construct: TYK2(JH1domain-catalytic); purchased DiscoverX KINOMEscan (kinases); BPS Bioscience (epigenetic targets)
# Protocol: as §1, §2, §3, §4
# [30] = molecular target: T30, ULK2 (Homo sapiens, UniProt Q8IYT8); assay: KINOMEscan kinase profiling; format: binding; settings: read-out: Percent Control
# T30 construct: purchased DiscoverX KINOMEscan (kinases); BPS Bioscience (epigenetic targets)
# Protocol: as §1, §2, §3, §4
# [31] = molecular target: T31, p38-beta (Homo sapiens, UniProt Q15759); assay: KINOMEscan kinase profiling; format: binding; settings: read-out: Percent Control
# T31 construct: purchased DiscoverX KINOMEscan (kinases); BPS Bioscience (epigenetic targets)
# Protocol: as §1, §2, §3, §4
# [32] = tested on: MD-901; assay: Cell proliferation assay (MTS); format: cell-based; settings: Homo sapiens; ABC-DLBCL, 48 h
# [33] = tested on: SU-DHL-8; assay: Cell proliferation assay (MTS); format: cell-based; settings: Homo sapiens, ABC-DLBCL, 48 h
# [34] = tested on: HT; assay: Cell proliferation assay (MTS); format: cell-based; settings: Homo sapiens, GC-DLBCL, 48 h
# [35] = tested on: OCI-Ly1; assay: Cell proliferation assay (MTS); format: cell-based; settings: Homo sapiens, GC-DLBCL, 48 h
# [36] = tested on: RT-4; assay: Cell proliferation assay (MTS); format: cell-based; settings: Homo sapiens, Bladder
# [37] = tested on: BxPC3; assay: Cell proliferation assay (MTS); format: cell-based; settings: Homo sapiens, BXPC-3; Pancreas
# [38] = tested on: Mia Paca-2; assay: Cell proliferation assay (MTS); format: cell-based; settings: Homo sapiens, Pancreas
# [39] = tested on: H209; assay: Cell proliferation assay (MTS); format: cell-based; settings: Homo sapiens, NCI-H209; SCLC
# [40] = tested on: OCI-Ly10; assay: Cell proliferation assay (MTS); format: cell-based, human; settings: ABC-DLBCL, 48 h, read-out: GI50
smiles,measurement,setting,value
"COc1cc2c(NC3CCN(C)CC3)cc(-c3ccc(C)o3)nc2cc1OCCCN1CCCC1 [CM-272, 6-methoxy-2-(5-methyl-2-furyl)-N-(1-methyl-4-piperidyl)-7-(3-pyrrolidin-1-ylpropoxy)quinolin-4-amine]",remaining binding at 10 µM,[1],25%
same,remaining binding at 10 µM,[2],9.4%
same,remaining binding at 10 µM,[3],4.8%
same,remaining binding at 10 µM,[4],100%
same,remaining binding at 10 µM,[5],71%
same,remaining binding at 10 µM,[6],61%
same,remaining binding at 10 µM,[7],27%
same,remaining binding at 10 µM,"[8]; 10 µM, read-out: Percent Control",0%
same,Kd,[8]; KINOMEscan,1600 nM
same,remaining binding at 10 µM,[9],100%
same,remaining binding at 10 µM,[10],100%
same,remaining binding at 10 µM,[11],97%
same,remaining binding at 10 µM,[12],10%
same,remaining binding at 10 µM,[13],8.9%
same,remaining binding at 10 µM,[14],100%
same,remaining binding at 10 µM,[15],87%
same,remaining binding at 10 µM,[16],100%
same,remaining binding at 10 µM,[17],45%
same,remaining binding at 10 µM,[18],22%
same,remaining binding at 10 µM,[19],18%
same,remaining binding at 10 µM,[20],23%
same,remaining binding at 10 µM,[21],100%
same,remaining binding at 10 µM,[22],40%
same,remaining binding at 10 µM,[23],93%
same,remaining binding at 10 µM,[24],100%
same,remaining binding at 10 µM,[25],73%
same,remaining binding at 10 µM,[26],73%
same,remaining binding at 10 µM,[27],100%
same,remaining binding at 10 µM,[28],12%
same,remaining binding at 10 µM,[29],22%
same,remaining binding at 10 µM,[30],9.8%
same,remaining binding at 10 µM,[31],92%
same,GI50,[32],1460 nM
same,GI50,[33],1950 nM
same,GI50,[34],1170 nM
same,GI50,[35],1010 nM
same,GI50,[36],817 nM
same,GI50,[37],319 nM
same,GI50,[38],206 nM
same,GI50,[39],1150 nM
"COc1cc2c(NCC3CCN(C)CC3)cc(-c3ccc(C)o3)nc2cc1OCCCN1CCCC1 [CM-579, 6-methoxy-2-(5-methyl-2-furyl)-N-[(1-methyl-4-piperidyl)methyl]-7-(3-pyrrolidin-1-ylpropoxy)quinolin-4-amine]",GI50,[40],< 31 nM
same,GI50,"[40]; Homo sapiens, OCI-Ly10, 48 h",31 nM
